Laboratory results taken from PubChem BioAssay AID1259407 (Chemical Carcinogenesis Research Information System (CCRIS), 2018).
Calls of active or inactive are those of the source. No rule for the calls is given here. Where a SMILES comes first, the peptide text is derived from it.

Tested on: CCRIS mutagenicity, Ames/micronucleus/aberration tests
Assay: CCRIS mutagenicity studies
[1] = Test System: AMES SALMONELLA TYPHIMURIUM, Strain/Indicator: TA98, Metabolic Activation: NONE, Method: STANDARD PLATE
[2] = Test System: AMES SALMONELLA TYPHIMURIUM, Strain/Indicator: TA98, Metabolic Activation: RAT, LIVER, S-9, AROCLOR 1254, Method: STANDARD PLATE
[3] = Test System: AMES SALMONELLA TYPHIMURIUM, Strain/Indicator: TA100, Metabolic Activation: NONE, Method: STANDARD PLATE
[4] = Test System: AMES SALMONELLA TYPHIMURIUM, Strain/Indicator: TA100, Metabolic Activation: RAT, LIVER, S-9, AROCLOR 1254, Method: STANDARD PLATE
[5] = Test System: AMES SALMONELLA TYPHIMURIUM, Strain/Indicator: TA1535, Metabolic Activation: NONE, Method: STANDARD PLATE
[6] = Test System: AMES SALMONELLA TYPHIMURIUM, Strain/Indicator: TA1535, Metabolic Activation: RAT, LIVER, S-9, AROCLOR 1254, Method: STANDARD PLATE
[7] = Test System: AMES SALMONELLA TYPHIMURIUM, Strain/Indicator: TA1537, Metabolic Activation: NONE, Method: STANDARD PLATE
[8] = Test System: AMES SALMONELLA TYPHIMURIUM, Strain/Indicator: TA1537, Metabolic Activation: RAT, LIVER, S-9, AROCLOR 1254, Method: STANDARD PLATE
[9] = Test System: E. COLI, Strain/Indicator: WP2 UVRA, Metabolic Activation: NONE, Method: FLUCTUATION TEST

NCCCC[C@H](NC(=O)[C@H](Cc1c[nH]c2ccccc12)NC(=O)[C@@H](N)CCCCN)C(=O)O (H-Lys-Trp-Lys-OH)
mutagenic call [1]: inactive; negative
mutagenic call [2]: inactive; negative
mutagenic call [3]: inactive; negative
mutagenic call [4]: inactive; negative
mutagenic call [5]: inactive; negative
mutagenic call [6]: inactive; negative
mutagenic call [7]: inactive; negative
mutagenic call [8]: inactive; negative

CNC(=O)Oc1ccc(-c2ccccc2)cc1
mutagenic call [2]: inactive; negative
mutagenic call [6]: active; positive

CC(C)(C)C(Br)C(=O)Nc1ccccc1 (centres undefined)
mutagenic call (Test System: AMES SALMONELLA TYPHIMURIUM, Strain/Indicator: TA100, Metabolic Activation: MOUSE, LIVER, S-9, AROCLOR 1254, Method: STANDARD PLATE): inactive; negative
mutagenic call [3]: inactive; negative

O=[N+]([O-])c1ccc(NO)cc1
mutagenic call (Test System: AMES SALMONELLA TYPHIMURIUM, Strain/Indicator: TA98(NR), Metabolic Activation: NONE, Method: STANDARD PLATE): active; positive
mutagenic call (Test System: AMES SALMONELLA TYPHIMURIUM, Strain/Indicator: TA98(NR), Metabolic Activation: RAT, LIVER, S-9, AROCLOR 1254, Method: STANDARD PLATE): inactive; negative
mutagenic call [1]: active; positive
mutagenic call [2]: active; positive
mutagenic call [3]: active; positive
mutagenic call [5]: active; positive
mutagenic call (Test System: AMES SALMONELLA TYPHIMURIUM, Strain/Indicator: TA1538(NR), Metabolic Activation: NONE, Method: STANDARD PLATE): active; positive
mutagenic call (Test System: AMES SALMONELLA TYPHIMURIUM, Strain/Indicator: TA1538(NR), Metabolic Activation: RAT, LIVER, S-9, AROCLOR 1254, Method: STANDARD PLATE): active; positive
mutagenic call (Test System: AMES SALMONELLA TYPHIMURIUM, Strain/Indicator: TA1538, Metabolic Activation: NONE, Method: STANDARD PLATE): active; positive
mutagenic call (Test System: AMES SALMONELLA TYPHIMURIUM, Strain/Indicator: TA1538, Metabolic Activation: RAT, LIVER, S-9, AROCLOR 1254, Method: STANDARD PLATE): active; positive
mutagenic call (Test System: E. COLI, Strain/Indicator: WP2 UVRA(P), Metabolic Activation: NONE, Method: STANDARD PLATE): active; positive
mutagenic call [9]: active; positive
mutagenic call (Test System: E. COLI, Strain/Indicator: WP2 UVRA, Metabolic Activation: NONE, Method: STANDARD PLATE): inactive; negative

OC[C@@H](O)[C@@H](O)[C@H](O)[C@@H](O)CO
mutagenic call (End Point: IN VITRO CHROMOSOMAL ABERRATIONS, Test System: CHO-WBL CELLS, Metabolic Activation: NONE): active; positive (structural changes); osmolality of solution decisive factor
mutagenic call (Test System: AMES SALMONELLA TYPHIMURIUM, Strain/Indicator: TA97A, Metabolic Activation: NONE, Method: PREINCUBATION): inactive; negative
mutagenic call (Test System: AMES SALMONELLA TYPHIMURIUM, Strain/Indicator: TA97A, Metabolic Activation: RAT, LIVER, S-9, AROCLOR 1254, Method: PREINCUBATION): inactive; negative
mutagenic call (Test System: AMES SALMONELLA TYPHIMURIUM, Strain/Indicator: TA102, Metabolic Activation: NONE, Method: PREINCUBATION): inactive; negative
mutagenic call (Test System: AMES SALMONELLA TYPHIMURIUM, Strain/Indicator: TA102, Metabolic Activation: RAT, LIVER, S-9, AROCLOR 1254, Method: PREINCUBATION): inactive; negative

OC1C2OC2=C2C=c3ccc4cccc5ccc(c3c54)C2C1O (centres undefined)
mutagenic call (Test System: CHINESE HAMSTER V-79, Strain/Indicator: V-79/8-AZAGUANINE, Metabolic Activation: NONE, Method: STANDARD PLATE): active; positive

O=CNc1ccc(Oc2ccc(Cl)cc2)cc1
mutagenic call [3]: inactive; negative
mutagenic call (Test System: AMES SALMONELLA TYPHIMURIUM, Strain/Indicator: TA100, Metabolic Activation: RAT, LIVER, S-9, KANECLOR 500, Method: STANDARD PLATE): active; positive

O=CC=C(Cl)Cl
mutagenic call [1]: active; positive
mutagenic call [2]: inactive; negative
mutagenic call [3]: active; positive
mutagenic call [4]: active; positive
mutagenic call [5]: active; positive
mutagenic call [6]: active; positive
mutagenic call [7]: inactive; negative
mutagenic call [8]: inactive; negative

CCc1ccc(NO)cc1
mutagenic call [9]: active; positive

O=[N+]([O-])c1ccccc1CCO
mutagenic call (Test System: AMES SALMONELLA TYPHIMURIUM, Strain/Indicator: TA98, Metabolic Activation: HAMSTER, LIVER, S-9, AROCLOR 1254 (10%), Method: PREINCUBATION): inactive; negative
mutagenic call (Test System: AMES SALMONELLA TYPHIMURIUM, Strain/Indicator: TA98, Metabolic Activation: HAMSTER, LIVER, S-9, AROCLOR 1254 (30%), Method: PREINCUBATION): inactive; negative
mutagenic call (Test System: AMES SALMONELLA TYPHIMURIUM, Strain/Indicator: TA98, Metabolic Activation: NONE, Method: PREINCUBATION): inactive; negative
mutagenic call (Test System: AMES SALMONELLA TYPHIMURIUM, Strain/Indicator: TA98, Metabolic Activation: RAT, LIVER, S-9, AROCLOR 1254 (10%), Method: PREINCUBATION): inactive; negative
mutagenic call (Test System: AMES SALMONELLA TYPHIMURIUM, Strain/Indicator: TA98, Metabolic Activation: RAT, LIVER, S-9, AROCLOR 1254 (30%), Method: PREINCUBATION): inactive; negative
mutagenic call (Test System: AMES SALMONELLA TYPHIMURIUM, Strain/Indicator: TA100, Metabolic Activation: HAMSTER, LIVER, S-9, AROCLOR 1254 (10%), Method: PREINCUBATION): inactive; negative
mutagenic call (Test System: AMES SALMONELLA TYPHIMURIUM, Strain/Indicator: TA100, Metabolic Activation: HAMSTER, LIVER, S-9, AROCLOR 1254 (30%), Method: PREINCUBATION): active; positive
mutagenic call (Test System: AMES SALMONELLA TYPHIMURIUM, Strain/Indicator: TA100, Metabolic Activation: NONE, Method: PREINCUBATION): inactive; negative
mutagenic call (Test System: AMES SALMONELLA TYPHIMURIUM, Strain/Indicator: TA100, Metabolic Activation: RAT, LIVER, S-9, AROCLOR 1254 (5%), Method: PREINCUBATION): inactive; negative
mutagenic call (Test System: AMES SALMONELLA TYPHIMURIUM, Strain/Indicator: TA100, Metabolic Activation: RAT, LIVER, S-9, AROCLOR 1254 (10%), Method: PREINCUBATION): inactive; negative
mutagenic call (Test System: AMES SALMONELLA TYPHIMURIUM, Strain/Indicator: TA100, Metabolic Activation: RAT, LIVER, S-9, AROCLOR 1254 (30%), Method: PREINCUBATION): inactive; negative
mutagenic call (Test System: AMES SALMONELLA TYPHIMURIUM, Strain/Indicator: TA1535, Metabolic Activation: HAMSTER, LIVER, S-9, AROCLOR 1254 (10%), Method: PREINCUBATION): inactive; negative
mutagenic call (Test System: AMES SALMONELLA TYPHIMURIUM, Strain/Indicator: TA1535, Metabolic Activation: NONE, Method: PREINCUBATION): inactive; negative
mutagenic call (Test System: AMES SALMONELLA TYPHIMURIUM, Strain/Indicator: TA1535, Metabolic Activation: RAT, LIVER, S-9, AROCLOR 1254 (10%), Method: PREINCUBATION): inactive; negative
mutagenic call (Test System: AMES SALMONELLA TYPHIMURIUM, Strain/Indicator: TA1537, Metabolic Activation: HAMSTER, LIVER, S-9, AROCLOR 1254 (10%), Method: PREINCUBATION): inactive; negative
mutagenic call (Test System: AMES SALMONELLA TYPHIMURIUM, Strain/Indicator: TA1537, Metabolic Activation: NONE, Method: PREINCUBATION): inactive; negative
mutagenic call (Test System: AMES SALMONELLA TYPHIMURIUM, Strain/Indicator: TA1537, Metabolic Activation: RAT, LIVER, S-9, AROCLOR 1254 (10%), Method: PREINCUBATION): inactive; negative

CCCCC/C=C\C/C=C\C/C=C\C/C=C\CCCC(=O)O
mutagenic call (Test System: CHINESE HAMSTER V-79, Strain/Indicator: V-79/6-THIOGUANINE, Metabolic Activation: NONE): active; positive

O=C(Nc1ccccc1Cl)c1csc([N+](=O)[O-])c1
mutagenic call [1]: active; positive
mutagenic call [3]: active; positive

O=C(Nc1ccccc1F)c1csc([N+](=O)[O-])c1
mutagenic call [1]: active; positive
mutagenic call [3]: active; positive
